The text below walks through data of patent US20230302083A1, “HIGHLY-NETWORKED C[…] COMPOSITION” (priority 2020, published 2023).

The target of test [1] is T1, HLA-A*0301 (Homo sapiens, UniProt P04439).
T1 construct: expressed in transfected cells; host or cells: TAP-deficient (CRISPR/Cas9) HLA-A*0301 mono-allelic 721.221 human B cells
Kind of test: HLA class I-peptide stability assay in TAP-deficient HLA-A*0301 mono-allelic cells. The class given is cell-based.

For test [2], the system named is HLA class I alleles. The test is classed as cell-based, human.

As to KGIYQTSNFR [A3 COVID 15], in test [1], the “HLA-A*0301 stabilization” value was “HLA stabilizing”.
For MIAQYTSAL [B7 COVID 16], the “stabilization of HLA class I alleles” value in test [2] is “stabilized a number of HLA class I alleles”.
Regarding NPLLYDANYFL [B81 COVID 14], the “50% Experimental Binder” value in test [2] is “YES”.
As for RVIHFGAGSDK [A3 COVID 3], in test [1], the “HLA-A*0301 stabilization” value was “HLA stabilizing”.
On to YQDVNCTEV [B39 COVID 11], for which the “50% Experimental Binder” value in test [2] is on record as “YES”.
